Experimental data: patent US9200005B2, “Inhibitor compounds of phosphodiesterase type 10A” (AbbVie Deutschland GmbH & Co. KG, priority 2013, dated 2015)

Experiments:
PDE10A = PDE10A (UniProt Q9Y233); assay: Measurement of PDE activity (HTRF cAMP kit, recombinant PDE10A); format: biochemical, human, rat and mouse; details: substrate 20 nM, 60 minutes at 29° C.
[1] = Determination of the microsomal half-life / microsomal clearance, rat liver microsomes; format: in vitro ADME; details: 0.5 μM test substance, 0.25 mg of microsomal protein/mL, NADPH, 37° C.
Summary of the method: (§1)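 Compound (0.5 μM) was preincubated 5 min at 37 °C with rat or human liver microsomes (0.25 mg protein/mL) in 0.05 M phosphate pH 7.4, and NADPH (1 mg/mL) was then added. Samples taken at 0-30 min and quenched with acetonitrile were analysed by MS/MS. T½ was derived assuming first-order decay, and clearance […] was calculated from T½ and protein content.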

[2] = Determination of the microsomal half-life / microsomal clearance, human liver microsomes; format: in vitro ADME; details: 0.5 μM test substance, 0.25 mg of microsomal protein/mL, NADPH, 37° C.
Summary of the method: as §1

rats [3] = details: cited from earlier work
rats [4] = details: PCP (WO 03/093499); cited from earlier work
rats [5] = details: amphetamine (WO 03/093499); cited from earlier work

| IC50 (PDE10A) [µM] | Rat mCl [1] | Human mCl [2] | Compound | catalepsy on its own (rats [3]; alone (WO 03/093499)) | cataleptic effect of the D2 receptor antagonist haloperidol (rats [3]; with haloperidol (WO 03/093499)) | hyperactivity in rats induced by PCP (rats [4]) | reduction of amphetamine-induced hyperactivity (rats [5]) |
| --- | --- | --- | --- | --- | --- | --- | --- |
| 0.1 to 0.2 | ++ (++: <100 μl min^−1 mg^−1) | ++ (++: <100 μl min^−1 mg^−1) | Cn1nc(-c2cccc(C#N)c2)c2scc(-c3ccncc3)c2c1=O [Example 94, 3-[5-methyl-4-oxo-3-(pyridin-4-yl)-4,5-dihydrothieno[2,3-d]pyridazin-7-yl]benzonitrile] |  |  |  |  |
| < 0.1 | ++ (++: <100 μl min^−1 mg^−1) | ++ (++: <100 μl min^−1 mg^−1) | Cn1nc(-c2ccc(C#N)cc2)c2scc(-c3ccncc3)c2c1=O [Example 95, 4-[5-methyl-4-oxo-3-(pyridin-4-yl)-4,5-dihydrothieno[2,3-d]pyridazin-7-yl]benzonitrile] |  |  |  |  |
| < 0.1 | ++ (++: <100 μl min^−1 mg^−1) | + (+: 100-220 μl min^−1 mg^−1) | COc1ccc(-c2nn(C)c(=O)c3c(-c4ccncc4)csc23)cc1 [Example 96, 7-(4-methoxyphenyl)-5-methyl-3-(pyridin-4-yl)thieno[2,3-d]pyridazin-4(5H)-one] |  |  |  |  |
| < 0.1 | ++ (++: <100 μl min^−1 mg^−1) | ++ (++: <100 μl min^−1 mg^−1) | Cn1nc(-c2ccc3ncoc3c2)c2scc(-c3ccncc3)c2c1=O [Example 97, 7-(1,3-benzoxazol-6-yl)-5-methyl-3-(pyridin-4-yl)thieno[2,3-d]pyridazin-4(5H)-one] |  |  |  |  |
| < 0.1 | ++ (++: <100 μl min^−1 mg^−1) | ++ (++: <100 μl min^−1 mg^−1) | COCCn1cc(-c2nn(C)c(=O)c3c(-c4ccncc4)csc23)cn1.O=C(O)C(F)(F)F.O=C(O)C(F)(F)F [Example 99, 7-[1-(2-methoxyethyl)-1H-pyrazol-4-yl]-5-methyl-3-(pyridin-4-yl)thieno[2,3-d]pyridazin-4(5H)-one bis(trifluoroacetate)] |  |  |  |  |
| 0.2 to 0.5 | + (+: 100-220 μl min^−1 mg^−1) | + (+: 100-220 μl min^−1 mg^−1) | Cn1nc(-c2ccc3c(c2)OCO3)c2scc(-c3ccncc3)c2c1=O [Example 124, 7-(1,3-benzodioxol-5-yl)-5-methyl-3-(pyridin-4-yl)thieno[2,3-d]pyridazin-4(5H)-one] |  |  |  |  |
| 0.2 to 0.5 | ++ (++: <100 μl min^−1 mg^−1) | ++ (++: <100 μl min^−1 mg^−1) | Cc1ncc(-c2csc3c(-c4ccncc4)nn(CC(F)(F)F)c(=O)c23)cn1 [Example 128, 3-(2-methylpyrimidin-5-yl)-7-(pyridin-4-yl)-5-(2,2,2-trifluoroethyl)thieno[2,3-d]pyridazin-4(5H)-one] |  |  |  |  |
| 0.1 to 0.2 | ++ (++: <100 μl min^−1 mg^−1) | ++ (++: <100 μl min^−1 mg^−1) | Cn1nc(-c2ccncc2)c2scc(-c3ccncc3)c2c1=O [Example 130, 5-methyl-3,7-di(pyridin-4-yl)thieno[2,3-d]pyridazin-4(5H)-one] |  |  |  |  |
| < 0.1 | ++ (++: <100 μl min^−1 mg^−1) | ++ (++: <100 μl min^−1 mg^−1) | O=c1c2c(-c3ccncc3)csc2c(-c2ccncc2)nn1CC(F)(F)F [Example 131, 3,7-di(pyridin-4-yl)-5-(2,2,2-trifluoroethyl)thieno[2,3-d]pyridazin-4(5H)-one] |  |  |  |  |
| 0.2 to 0.5 | + (+: 100-220 μl min^−1 mg^−1) | ++ (++: <100 μl min^−1 mg^−1) | CC(C)n1nc(-c2ccncc2)c2scc(-c3ccncc3)c2c1=O [Example 135, 5-(propan-2-yl)-3,7-di(pyridin-4-yl)thieno[2,3-d]pyridazin-4(5H)-one] |  |  |  |  |
| < 0.1 | ++ (++: <100 μl min^−1 mg^−1) | ++ (++: <100 μl min^−1 mg^−1) | CCn1nc(-c2ccncc2)c2scc(-c3ccncc3)c2c1=O [Example 136, 5-ethyl-3,7-di(pyridin-4-yl)thieno[2,3-d]pyridazin-4(5H)-one] |  |  |  |  |
| 0.1 to 0.2 | ++ (++: <100 μl min^−1 mg^−1) | + (+: 100-220 μl min^−1 mg^−1) | CCCn1nc(-c2ccncc2)c2scc(-c3ccncc3)c2c1=O [Example 139, 5-propyl-3,7-di(pyridin-4-yl)thieno[2,3-d]pyridazin-4(5H)-one] |  |  |  |  |
| < 0.1 | ++ (++: <100 μl min^−1 mg^−1) | ++ (++: <100 μl min^−1 mg^−1) | CCn1nc(-c2ccncc2)c2scc(-c3cncnc3)c2c1=O [Example 145, 5-ethyl-7-(pyridin-4-yl)-3-(pyrimidin-5-yl)thieno[2,3-d]pyridazin-4(5H)-one] |  |  |  |  |
| < 0.1 | ++ (++: <100 μl min^−1 mg^−1) | ++ (++: <100 μl min^−1 mg^−1) | O=c1c2c(-c3cncnc3)csc2c(-c2ccncc2)nn1CC1CC1 [Example 146, 5-(cyclopropylmethyl)-7-(pyridin-4-yl)-3-(pyrimidin-5-yl)thieno[2,3-d]pyridazin-4(5H)-one] |  |  |  |  |
| < 0.1 | + (+: 100-220 μl min^−1 mg^−1) | + (+: 100-220 μl min^−1 mg^−1) | Cn1nc(OCc2cccnc2)c2scc(-c3ccncc3)c2c1=O [Example 147, 5-methyl-3-(pyridin-4-yl)-7-(pyridin-3-ylmethoxy)thieno[2,3-d]pyridazin-4(5H)-one] |  |  |  |  |
|  |  |  | COc1ccc(Cc2nccc3cc(OC)c(OC)cc23)cc1OC [Papaverine, papaverine] | did not cause catalepsy | potentiated | reduced | insignificant |

| Compound | IC50 (PDE10A) [µM] | Rat mCl [1] | Human mCl [2] | catalepsy on its own (rats [3]; alone (WO 03/093499)) | cataleptic effect of the D2 receptor antagonist haloperidol (rats [3]; with haloperidol (WO 03/093499)) | hyperactivity in rats induced by PCP (rats [4]) | reduction of amphetamine-induced hyperactivity (rats [5]) |
| --- | --- | --- | --- | --- | --- | --- | --- |
| COc1cccc(-c2nn(C)c(=O)c3c(-c4ccncc4)csc23)c1 [Example 123, 7-(3-methoxyphenyl)-5-methyl-3-(pyridin-4-yl)thieno[2,3-d]pyridazin-4(5H)-one] | 0.1 to 0.2 | ∘ (∘ not avialable or >220 μl min^−1 mg^−1) | + (+: 100-220 μl min^−1 mg^−1) |  |  |  |  |
